Converted amounts (≈) assume the structure as drawn.
Tests used:
MCF7 = experiment: Growth inhibition of human MCF7 cells assessed as cell growth at 10 uM incubated for 48 hrs by sulforhodamine B assay relative to control; format: functional; conditions: MCF7, 48 h, read-out: Activity
RPMI-8226 = experiment: Growth inhibition of human RPMI8226 cells assessed as cell growth at 10 uM incubated for 48 hrs by sulforhodamine B assay relative to control; format: functional; conditions: RPMI-8226, 48 h, read-out: Activity
DU-145 = experiment: Growth inhibition of human DU145 cells assessed as cell growth at 10 uM incubated for 48 hrs by sulforhodamine B assay relative to control; format: functional; conditions: DU-145, 48 h, read-out: Activity
K562 = experiment: Growth inhibition of human K562 cells assessed as cell growth at 10 uM incubated for 48 hrs by sulforhodamine B assay relative to control; format: functional; conditions: K562, 48 h, read-out: Activity
TK-10 = experiment: Growth inhibition of human TK10 cells assessed as cell growth at 10 uM incubated for 48 hrs by sulforhodamine B assay relative to control; format: functional; conditions: TK-10, 48 h, read-out: Activity
SF-539 = experiment: Growth inhibition of human SF539 cells assessed as cell growth at 10 uM incubated for 48 hrs by sulforhodamine B assay relative to control; format: functional; conditions: SF-539, 48 h, read-out: Activity
UACC-62 = experiment: Growth inhibition of human UACC62 cells assessed as cell growth at 10 uM incubated for 48 hrs by sulforhodamine B assay relative to control; format: functional; conditions: UACC-62, 48 h, read-out: Activity
COLO 205 = experiment: Growth inhibition of human COLO205 cells assessed as cell growth at 10 uM incubated for 48 hrs by sulforhodamine B assay relative to control; format: functional; conditions: COLO 205, 48 h, read-out: Activity
HCC 2998 = experiment: Growth inhibition of human HCC2998 cells assessed as cell growth at 10 uM incubated for 48 hrs by sulforhodamine B assay relative to control; format: functional; conditions: HCC 2998, 48 h, read-out: Activity
SK-MEL-5 = experiment: Growth inhibition of human SK-MEL-5 cells assessed as cell growth at 10 uM incubated for 48 hrs by sulforhodamine B assay relative to control; format: functional; conditions: SK-MEL-5, 48 h, read-out: Activity
SR = experiment: Growth inhibition of human SR cells assessed as cell growth at 10 uM incubated for 48 hrs by sulforhodamine B assay relative to control; format: functional; conditions: read-out: Activity
CAKI-1 = experiment: Growth inhibition of human Caki1 cells assessed as cell growth at 10 uM incubated for 48 hrs by sulforhodamine B assay relative to control; format: functional; conditions: CAKI-1, 48 h, read-out: Activity
SF-295 = experiment: Growth inhibition of human SF295 cells assessed as cell growth at 10 uM incubated for 48 hrs by sulforhodamine B assay relative to control; format: functional; conditions: SF-295, 48 h, read-out: Activity
SF-268 = experiment: Growth inhibition of human SF268 cells assessed as cell growth at 10 uM incubated for 48 hrs by sulforhodamine B assay relative to control; format: functional; conditions: SF-268, 48 h, read-out: Activity
MOLT-4 = experiment: Growth inhibition of human MOLT4 cells assessed as cell growth at 10 uM incubated for 48 hrs by sulforhodamine B assay relative to control; format: functional; conditions: MOLT-4, 48 h, read-out: Activity
HL-60(TB) = experiment: Growth inhibition of human HL-60(TB) cells assessed as cell growth at 10 uM incubated for 48 hrs by sulforhodamine B assay relative to control; format: functional; conditions: HL-60, 48 h, read-out: Activity
NCI-H322M = experiment: Growth inhibition of human NCI-H322M cells assessed as cell growth at 10 uM incubated for 48 hrs by sulforhodamine B assay relative to control; format: functional; conditions: read-out: Activity
SN12C = experiment: Growth inhibition of human SN12C cells assessed as cell growth at 10 uM incubated for 48 hrs by sulforhodamine B assay relative to control; format: functional; conditions: read-out: Activity
BT-549 = experiment: Growth inhibition of human BT549 cells assessed as cell growth at 10 uM incubated for 48 hrs by sulforhodamine B assay relative to control; format: functional; conditions: BT-549, 48 h, read-out: Activity
NCI-H226 = experiment: Growth inhibition of human NCI-H226 cells assessed as cell growth at 10 uM incubated for 48 hrs by sulforhodamine B assay relative to control; format: functional; conditions: NCI-H226, 48 h, read-out: Activity
NCI-H23 = experiment: Growth inhibition of human NCI-H23 cells assessed as cell growth at 10 uM incubated for 48 hrs by sulforhodamine B assay relative to control; format: functional; conditions: NCI-H23, 48 h, read-out: Activity
M14 = experiment: Growth inhibition of human M14 cells assessed as cell growth at 10 uM incubated for 48 hrs by sulforhodamine B assay relative to control; format: functional; conditions: M14, 48 h, read-out: Activity
HCT-15 = experiment: Growth inhibition of human HCT15 cells assessed as cell growth at 10 uM incubated for 48 hrs by sulforhodamine B assay relative to control; format: functional; conditions: HCT-15, 48 h, read-out: Activity
RXF 393 = experiment: Growth inhibition of human RXF393 cells assessed as cell growth at 10 uM incubated for 48 hrs by sulforhodamine B assay relative to control; format: functional; conditions: RXF 393, 48 h, read-out: Activity
EKVX = experiment: Growth inhibition of human EKVX cells assessed as cell growth at 10 uM incubated for 48 hrs by sulforhodamine B assay relative to control; format: functional; conditions: read-out: Activity
Trypanosoma cruzi = experiment: Antitrypanosomal activity against Trypanosoma cruzi Tulahuen amastigote forms infected in human U937 cells after 72 hrs by beta-galactosidase reporter gene assay; format: functional, organism-based; conditions: U-937, 72 h
Leishmania panamensis = experiment: Antileishmanial activity against EpiR/GFP fused Leishmania panamensis MHOM/CO/87/UA140 intracellular amastigotes infected in human […] cells after 72 hrs by flow cytometric method; format: functional, organism-based; conditions: MHOM/CO/87/UA140, 72 h
U-937 = experiment: Cytotoxicity against human U937 cells after 72 hrs by MTT assay; format: functional; conditions: U-937, 72 h, read-out: LC50 (the source's name)
Plasmodium falciparum = experiment: Antimalarial activity against chloroquine-sensitive Plasmodium falciparum 3D7 incubated for 48 hrs by malstat reagent based LDH release assay; format: functional, organism-based; conditions: 3D7, 48 h

SMILES | growth at 10 µM (MCF7) [%] | growth at 10 µM (RPMI-8226) [%] | growth at 10 µM (DU-145) [%] | growth at 10 µM (K562) [%] | growth at 10 µM (TK-10) [%] | growth at 10 µM (SF-539) [%] | growth at 10 µM (UACC-62) [%] | growth at 10 µM (COLO 205) [%] | growth at 10 µM (HCC 2998) [%] | growth at 10 µM (SK-MEL-5) [%] | growth at 10 µM (SR) [%] | growth at 10 µM (CAKI-1) [%] | growth at 10 µM (SF-268) [%] | growth at 10 µM (NCI-H322M) [%] | growth at 10 µM (SN12C) [%] | growth at 10 µM (BT-549) [%] | growth at 10 µM (NCI-H226) [%] | growth at 10 µM (NCI-H23) [%] | growth at 10 µM (M14) [%] | growth at 10 µM (RXF 393) [%] | also measured
O=C1CC(c2cc3ccc4ccccc4c3[nH]c2=O)Nc2ccccc21 (stereo not drawn) | 76.2 | 99.7 | 84.3 | 87.2 | 116 | 82.2 | 101 | 86.7 | 108 | 98.9 | 11.1 | 86 | 96.8 | 108 | 90.7 | 69.4 | 92.5 | 93.6 | 96.4 | 110 | growth at 10 µM (SF-295): 105%; growth at 10 µM (MOLT-4): 89.5%; growth at 10 µM (HL-60(TB)): 100%; growth at 10 µM (HCT-15): 96.5%; growth at 10 µM (EKVX): 93.8%
Cc1ccc2[nH]c(=O)c(C3CNC(=O)c4ccccc4N3)cc2c1 (stereo not drawn) | 102 | 102 | 106 | 111 | 104 | 96.5 | 98.4 | 107 | 107 | 98.6 | 133 | 92.1 | 99.5 | 110 | 99.7 | 99.4 | 109 | 97.1 | 103 | 109 | EC50 (Trypanosoma cruzi): 46.3 µg/mL (≈ 145 µM); EC50 (Leishmania panamensis): 22.9 µg/mL (≈ 71.8 µM); CC50 (U-937): 52.8 µg/mL (≈ 165 µM); growth at 10 µM (SF-295): 103%; EC50 (Plasmodium falciparum): 60.9 µg/mL (≈ 191 µM); growth at 10 µM (MOLT-4): 113%; growth at 10 µM (HL-60(TB)): 107%; growth at 10 µM (HCT-15): 105%; growth at 10 µM (EKVX): 102%
O=C1CC(c2cc3ccccc3[nH]c2=O)Nc2ccccc21 (stereo not drawn) | 102 | 107 | 105 | 102 | 98 | 99.4 | 96.3 | 115 | 103 | 103 | 95.4 | 95.2 | 101 | 102 | 93.3 | 94.3 | 96.5 | 97.8 | 101 | 99.7 | growth at 10 µM (SF-295): 98.4%; growth at 10 µM (MOLT-4): 102%; growth at 10 µM (HL-60(TB)): 98%; growth at 10 µM (HCT-15): 97.8%; growth at 10 µM (EKVX): 108%
CCCCn1c(=O)c(C2CNC(=O)c3ccccc3N2)cc2ccccc21 (stereo not drawn) | 99.6 | 109 | 108 | 99.3 | 109 | 89.9 | 88.4 | 111 | 108 | 102 | 102 | 85.8 | 98.9 | 111 | 85.7 | 97.8 | 111 | 95 | 107 | 111 | growth at 10 µM (SF-295): 96.8%; growth at 10 µM (MOLT-4): 46.4%; growth at 10 µM (HL-60(TB)): 96.7%; growth at 10 µM (HCT-15): 101%; growth at 10 µM (EKVX): 103%
O=C1NCC(c2cc3ccccc3[nH]c2=O)Nc2ccccc21 (stereo not drawn) | 103 | 106 | 111 | 90.2 | 87.8 | 96.5 | 98.3 | 107 | 104 | 97.2 | 100 | 88.1 | 99.9 | 100 | 99.7 | 96.3 | 98.4 | 97.4 | 101 | 90.7 | EC50 (Trypanosoma cruzi): 48.8 µg/mL (≈ 160 µM); EC50 (Leishmania panamensis): 110 µg/mL (≈ 361 µM); CC50 (U-937): 36.3 µg/mL (≈ 119 µM); growth at 10 µM (SF-295): 106%; EC50 (Plasmodium falciparum): 64.7 µg/mL (≈ 212 µM); growth at 10 µM (MOLT-4): 111%; growth at 10 µM (HL-60(TB)): 95.7%; growth at 10 µM (HCT-15): 106%; growth at 10 µM (EKVX): 106%
CCCCOc1nc2ccc(OC)cc2cc1C1CNC(=O)c2ccccc2N1 (stereo not drawn) | – | 88.9 | 108 | – | 97 | 95.3 | 76.2 | 106 | 123 | 86.9 | – | 77.7 | 99 | 110 | 91.5 | 98.1 | 87.1 | 99.2 | 99 | 109 | –
O=C1NCC(c2cc3ccc4ccccc4c3[nH]c2=O)Nc2ccccc21 (stereo not drawn) | 33.4 | 109 | 77.3 | 97.3 | 107 | 99.8 | 95.2 | 108 | 97.8 | 99.2 | 56.4 | 85.7 | 77.8 | 111 | 79.3 | 93.1 | 103 | 102 | 102 | 101 | EC50 (Leishmania panamensis): 4.98 µg/mL (≈ 14 µM); CC50 (U-937): 8.3 µg/mL (≈ 23.4 µM); growth at 10 µM (SF-295): 100%; EC50 (Plasmodium falciparum): > 20 µg/mL; growth at 10 µM (MOLT-4): 90.4%; growth at 10 µM (HL-60(TB)): 86.7%; growth at 10 µM (HCT-15): 102%; growth at 10 µM (EKVX): 96.4%
CCCCn1c(=O)c(C2CNC(=O)c3ccccc3N2)cc2ccc(Cl)cc21 (stereo not drawn) | 89.1 | 103 | 94.9 | 87.9 | 126 | 82 | 80.1 | 89.6 | 111 | 97.9 | 59.8 | 72.5 | 105 | 95.7 | 90.7 | 104 | 99.6 | 93.5 | 92.6 | 115 | growth at 10 µM (SF-295): 104%; growth at 10 µM (MOLT-4): 107%; growth at 10 µM (HL-60(TB)): 107%; growth at 10 µM (HCT-15): 98.5%; growth at 10 µM (EKVX): 89.8%

— ChEMBL document CHEMBL4138146, “A Schmidt rearrangement-mediated synthesis of novel tetrahydro-benzo[1,4]diazepin-5-ones as potential anticancer and antiprotozoal agents” (Eur J Med Chem, 2017)
